Data: patent publication US4431665A, “Acylated laidlomycin derivatives” (priority 1980, dated 1984)
Read-outs that look alike come from different tables or passages of the source.

Columns and labels:
[1] = test system: rumen microorganisms (mixed microbial population of rumen contents); assay: Enhancement of intraruminal propionic acid production, batch culture fermentation of rumen contents; type: cell-based, bovine (rumen-fistulated); conditions: 9 h, 39° C.
Procedure: Enhancement of intraruminal propionic acid production is determined using a batch culture fermentation system. Rumen contents from a rumen-fistulated bovine are mixed with an equal amount of buffer which contains mineral, energy and nitrogen sources required for continued growth and metabolism of the mixed microbial population. Aliquots of this inoculum then are transferred to incubation vessels containing appropriate amounts of sodium laidlomycin (Na L.) (see Example 1A), and L. butyrate (L.C4) (prepared according to the procedure of Example 1A). After 9 hours of incubation at 39° C., concentrations of individual volatile fatty acids in each incubation vessel are determined by gas-liquid chromatography. The net production of each individual volatile fatty acid (acetic [AA], propionic [PA] and butyric [BA]) is calculated as the difference between the concentration after incubation and the concentration before incubation. The molar percentage of propionic acid produced is calculated from the following equation: [formula]
The comparative activities of sodium laidlomycin (Na L.) and the laidlomycin butyrate upon propionic acid and lactic acid production are set forth in Tables 1 and 2 where the concentration is in micrograms per ml (μg/ml).
(§1) The procedure of Example 2 was followed to compare laidlomycin (L.), sodium L. (Na L.), L.-propionate (L.C3), L. butyrate (L.C4), L. isobutyrate (L. isoC4), L. pentanoate (L.C5) and L. hexanoate (L.C6).
(§2) The procedure of Example 2 was followed to compare the activities of L. heptanoate (L. C7), L. octanoate (L. C8), L. decanoate (L. C10) and L. dodecanoate (L. C12) in increasing propionic acid production and inhibiting lactic acid production.
(§3) The procedure of Example 2 was followed to compare the activities of laidlomycin (L.) acetate (L. C2), L. pentanoate (L. C5), L. stearate (L. C18), L. cyclobutylcarboxylate, L. cyclopentylcarboxylate, L. cyclohexylcarboxylate and L. cyclopropylcarboxylate.

[2] = test system: rumen contents (lactic acid accumulation); assay: Inhibition of lactic acid accumulation, second batch culture fermentation of rumen contents with glucose; type: cell-based, bovine (rumen fistulated); conditions: 6 h, 39° C.; for Lactic Acid Accumulation (μ mol/ml): Table 8, 0 μg/ml: 40.47; for Accumulation of Lactic Acid - % of Control: Table 4, 360 min
Procedure: Inhibition of lactic acid accumulation is determined using a second batch culture fermentation system. Rumen contents from a rumen fistulated bovine are mixed with an equal amount of buffer which contains a 150 mM concentration of glucose. Following 6 hours of incubation at 39° C., lactic acid produced in the fermentation is analyzed by a specific enzymatic assay. The concentration of lactic acid in the fermentation broth is quantified by the increase in absorbance of light at […] when nicotinamide adenine dinucleotide is reduced by lactic acid with the aid of lactate dehydrogenase. […]
as §1, §2, §3

[3] = Table 7, 1.25 μg/ml, 0 μg/ml: 36.1
[4] = Table 7, 2.5 μg/ml, 0 μg/ml: 36.1
[5] = Table 7, 5 μg/ml, 0 μg/ml: 36.1
[6] = Table 7, 10 μg/ml, 0 μg/ml: 36.1
[7] = Table 7, 20 μg/ml, 0 μg/ml: 36.1
[8] = Table 7, .313 μg/ml, 0 μg/ml: 36.1
[9] = Table 7, .625 μg/ml, 0 μg/ml: 36.1
[10] = Table 3, 1.25 μg/ml, 0 μg/ml: 28.5
[11] = Table 3, 5 μg/ml, 0 μg/ml: 28.5
[12] = Table 3, 20 μg/ml, 0 μg/ml: 28.5
[13] = Table 3, .31 μg/ml, 0 μg/ml: 28.5
[14] = Bos taurus, read-out: Accumulation of Lactic Acid - % of Control, Table 4, 1.25 μg/ml
[15] = Bos taurus, read-out: Accumulation of Lactic Acid - % of Control, Table 4, 5 μg/ml
[16] = Bos taurus, read-out: Accumulation of Lactic Acid - % of Control, Table 4, 20 μg/ml
[17] = Bos taurus, read-out: Accumulation of Lactic Acid - % of Control, Table 4, .31 μg/ml

Row | SMILES | % Propionic Acid [1, 3] [%] | % Propionic Acid [1, 4] [%] | % Propionic Acid [1, 5] [%] | % Propionic Acid [1, 6] [%] | % Propionic Acid [1, 7] [%] | % Propionic Acid [1, 8] [%] | % Propionic Acid [1, 9] [%] | Lactic Acid Accumulation (μ mol/ml) ([2]; 1.25 μg/ml) | Lactic Acid Accumulation (μ mol/ml) ([2]; 2.5 μg/ml) | Lactic Acid Accumulation (μ mol/ml) ([2]; 5 μg/ml) | Lactic Acid Accumulation (μ mol/ml) ([2]; 10 μg/ml) | Lactic Acid Accumulation (μ mol/ml) ([2]; 20 μg/ml) | Lactic Acid Accumulation (μ mol/ml) ([2]; .313 μg/ml) | Lactic Acid Accumulation (μ mol/ml) ([2]; .625 μg/ml) | % Propionic Acid [1, 10] [%] | % Propionic Acid [1, 11] [%] | % Propionic Acid [1, 12] [%] | % Propionic Acid [1, 13] [%] | also measured
1 | CCC(=O)OC(C(C)C(=O)O)C(C)C1OC2(CCC(C)(C3CCC(C)(C4OC(C5OC(O)(COC(=O)C6CCCCC6)C(C)CC5C)CC4C)O3)O2)CC(O)C1C (centres unmarked) [Cyclohexylcarboxylate, laidlomycin cyclohexylcarboxylate] | 50.1 | 50.8 | 51.6 | 51.8 | 53.3 | 47.2 | 49.0 | 3.74 | 4.40 | 4.83 | 4.97 | 5.72 | 35.55 | 12.78 |  |  |  |  | 
2 | CCC(=O)OC(C(C)C(=O)O)C(C)C1OC2(CCC(C)(C3CCC(C)(C4OC(C5OC(O)(COC(=O)C(C)C)C(C)CC5C)CC4C)O3)O2)CC(O)C1C (centres unmarked) [L. iso C4, laidlomycin isobutyrate] |  |  |  |  |  |  |  |  |  |  |  |  |  |  | 39.6 | 43.9 | 47.5 | 34.3 | activity at 1.25 µg/mL [2, 14]: 12%; activity at 5 µg/mL [2, 15]: 13%; activity at 20 µg/mL [2, 16]: 16%; activity at 0.31 µg/mL [2, 17]: 37%
3 | CCC(=O)OC(C(C)C(=O)O)C(C)C1OC2(CCC(C)(C3CCC(C)(C4OC(C5OC(O)(COC(=O)C6CC6)C(C)CC5C)CC4C)O3)O2)CC(O)C1C (centres unmarked) [Cyclopropylcarboxylate, laidlomycin cyclopropylcarboxylate] | 49.7 | 49.3 | 50.9 | 49.6 | 50.7 | 47.7 | 46.4 | 2.50 | 3.16 | 3.17 | 3.53 | 3.96 | 15.54 | 2.12 |  |  |  |  | 
4 | CCC(=O)OC(C(C)C(=O)O)C(C)C1OC2(CCC(C)(C3CCC(C)(C4OC(C5OC(O)(CO)C(C)CC5C)CC4C)O3)O2)CC(O)C1C (centres unmarked) [Na L., sodium laidlomycin, reference compound] |  |  |  |  |  |  |  |  |  |  |  |  |  |  | 34.1 | 34.6 | 36.8 | 32.0 | % Propionic Acid ([1]; Table 1, 1.25 μg/ml, 0 μg/ml: 35.4): 41.3%; % Propionic Acid ([1]; Table 1, 2.5 μg/ml, 0 μg/ml: 35.4): 43.2%; % Propionic Acid ([1]; Table 1, 5 μg/ml, 0 μg/ml: 35.4): 44.4%; % Propionic Acid ([1]; Table 1, 10 μg/ml, 0 μg/ml: 35.4): 45.4%; % Propionic Acid ([1]; Table 1, .31 μg/ml, 0 μg/ml: 35.4): 40.2%; % Propionic Acid ([1]; Table 1, .62 μg/ml, 0 μg/ml: 35.4): 40.8%; activity at 1.25 µg/mL ([2]; Bos taurus, read-out: Lactic Acid Accumulation (% of Control), Table 2, 1.25 μg/ml): 125%; activity at 2.5 µg/mL ([2]; Bos taurus, read-out: Lactic Acid Accumulation (% of Control), Table 2, 2.5 μg/ml): 112%; activity at 5 µg/mL ([2]; Bos taurus, read-out: Lactic Acid Accumulation (% of Control), Table 2, 5 μg/ml): 93%; activity at 10 µg/mL ([2]; Bos taurus, read-out: Lactic Acid Accumulation (% of Control), Table 2, 10 μg/ml): 67%; activity at 0.31 µg/mL ([2]; Bos taurus, read-out: Lactic Acid Accumulation (% of Control), Table 2, .31 μg/ml): 135%; activity at 0.62 µg/mL ([2]; Bos taurus, read-out: Lactic Acid Accumulation (% of Control), Table 2, .62 μg/ml): 132%; Accumulation of Lactic Acid - % of Control ([2]; 1.25 μg/ml): 94 % of Control; Accumulation of Lactic Acid - % of Control ([2]; 5 μg/ml): 57 % of Control; Accumulation of Lactic Acid - % of Control ([2]; 20 μg/ml): 40 % of Control; Accumulation of Lactic Acid - % of Control ([2]; .31 μg/ml): 114 % of Control
5 | CCC(=O)OC(C(C)C(=O)O)C(C)C1OC2(CCC(C)(C3CCC(C)(C4OC(C5OC(O)(COC(C)=O)C(C)CC5C)CC4C)O3)O2)CC(O)C1C (centres unmarked) [L. C2] | 50.7 | 50.4 | 52.2 | 51.2 | 53.0 | 42.8 | 47.1 | 6.89 | 4.34 | 4.35 | 4.35 | 5.28 | 41.19 | 22.23 |  |  |  |  | 
6 | CCCCCC(=O)OCC1(O)OC(C2CC(C)C(C3(C)CCC(C4(C)CCC5(CC(O)C(C)C(C(C)C(OC(=O)CC)C(C)C(=O)O)O5)O4)O3)O2)C(C)CC1C (centres unmarked) [L. C6, laidlomycin hexanoate] |  |  |  |  |  |  |  |  |  |  |  |  |  |  | 37.1 | 40.1 | 41.7 | 33.0 | activity at 1.25 µg/mL [2, 14]: 18%; activity at 5 µg/mL [2, 15]: 11%; activity at 20 µg/mL [2, 16]: 14%; activity at 0.31 µg/mL [2, 17]: 60%
7 | CCC(=O)OC(C(C)C(=O)O)C(C)C1OC2(CCC(C)(C3CCC(C)(C4OC(C5OC(O)(COC(=O)C6CCCC6)C(C)CC5C)CC4C)O3)O2)CC(O)C1C (centres unmarked) [Cyclopentylcarboxylate, laidlomycin cyclopentylcarboxylate] | 51.9 | 50.3 | 51.1 | 51.6 | 50.0 | 47.1 | 47.9 | 3.63 | 3.73 | 4.08 | 4.53 | 9.66 | 24.75 | 6.79 |  |  |  |  | 
